Earlier results as cited in patent US7914812B2, “Wound care dressing and method using same” (priority 2004, dated 2011).

Conditions: 25° C.
In the case of Isomalt, the “Solubility ww % (25° C.)” value is given as 28 ww %. For `OC[C@@H](O)[C@@H](O[C@@H]1O[C@H](CO)[C@H](O)[C@H](O)[C@H]1O)[C@H](O)[C@@H](O)CO` [Lactitol], the “Solubility ww % (25° C.)” value is given as 58 ww %. In the case of `OC[C@@H](O)[C@H](O)[C@@H](O)CO` [Xylitol], the “Solubility ww % (25° C.)” value is given as 66 ww %. In the case of `OC[C@@H](O)[C@@H](O)[C@H](O)[C@H](O)CO` [Mannitol], the “Solubility ww % (25° C.)” value is given as 18 ww %. In the case of `OC[C@@H](O)[C@@H](O)CO` [Erythritol], the “Solubility ww % (25° C.)” value is given as 36 ww %. For `OC[C@@H](O)[C@@H](O[C@H]1O[C@H](CO)[C@@H](O)[C@H](O)[C@H]1O)[C@H](O)[C@@H](O)CO` [Maltitol], the “Solubility ww % (25° C.)” value is listed as 60 ww %. For `OC[C@@H](O)[C@@H](O)[C@H](O)[C@@H](O)CO` [Sorbitol], the “Solubility ww % (25° C.)” value is given as 72 ww %.

Same assay, conditions: at about 37° C., i.e. body temperature; water
For `OC[C@@H](O)[C@@H](O)[C@H](O)[C@H](O)CO` [Mannitol], the solubility is listed as “about 23 grams per 100 grams of water”. For `OC[C@H]1O[C@@](CO)(O[C@H]2O[C@H](CO)[C@@H](O)[C@H](O)[C@H]2O)[C@@H](O)[C@@H]1O` [sucrose], the solubility is given as “about 78 grams per 100 grams of water”.
